{"source": "paper PMC7933434", "about": "“Entropy-driven binding of gut bacterial β-glucuronidase inhibitors ameliorates irinotecan-induced toxicity” (Communications Biology, 2021)", "target": "T1, HsGUS (human GUS) (Homo sapiens, UniProt P08236)", "T1 construct": "HsGUS was prepared as described[37]; made in house", "T1 sequence (P08236 23-651)": "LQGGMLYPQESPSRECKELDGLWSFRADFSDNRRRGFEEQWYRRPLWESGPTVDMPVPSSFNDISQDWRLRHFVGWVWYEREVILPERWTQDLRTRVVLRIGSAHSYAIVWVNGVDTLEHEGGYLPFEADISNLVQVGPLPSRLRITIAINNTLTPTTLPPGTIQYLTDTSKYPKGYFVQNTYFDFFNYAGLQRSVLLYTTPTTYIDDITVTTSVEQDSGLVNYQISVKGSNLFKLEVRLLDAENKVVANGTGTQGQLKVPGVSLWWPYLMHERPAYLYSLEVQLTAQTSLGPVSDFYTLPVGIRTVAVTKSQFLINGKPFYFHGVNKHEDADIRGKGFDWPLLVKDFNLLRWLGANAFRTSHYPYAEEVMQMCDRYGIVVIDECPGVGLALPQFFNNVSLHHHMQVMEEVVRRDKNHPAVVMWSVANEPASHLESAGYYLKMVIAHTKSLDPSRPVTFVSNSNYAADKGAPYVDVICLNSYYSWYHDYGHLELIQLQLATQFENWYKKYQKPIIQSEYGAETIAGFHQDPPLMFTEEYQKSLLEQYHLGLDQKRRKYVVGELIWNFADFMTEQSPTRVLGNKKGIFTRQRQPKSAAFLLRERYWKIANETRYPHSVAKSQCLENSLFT", "experiment": "GUS inhibition assay, hydrolysis of 4-methylumbelliferyl-β-glucuronide, HsGUS", "type": "biochemical", "set-up": "GUS activity (hydrolysis rate of MUG): unit not given here", "note": "Values joined by “and” are separate entries in the source; they are usually repeats but may differ in a detail not shown here. Identical values can stand only once.", "data": [{"smiles": "CCCCCC[C@@H]1NC[C@@H](O)[C@H](O)[C@H]1C(=O)O", "note": "[Inhibitor 3, C6-hexyl UIFG]", "values": [{"measurement": "Ki", "setting": "HsGUS, 50 mM sodium acetate pH 4.5, 37 °C", "value": "5.3 ± 0.9", "unit": "µM"}, {"measurement": "GUS activity (hydrolysis rate of MUG)", "setting": "[Inhibitor 3] =0.15625 μM, [MUG] 0.1 mM", "value": "771.278 and 806.238"}, {"measurement": "GUS activity (hydrolysis rate of MUG)", "setting": "[Inhibitor 3] =0.15625 μM, [MUG] 0.2 mM", "value": "1372.81 and 1460.04"}, {"measurement": "GUS activity (hydrolysis rate of MUG)", "setting": "[Inhibitor 3] =0.15625 μM, [MUG] 0.4 mM", "value": "2346.7 and 2406.16"}, {"measurement": "GUS activity (hydrolysis rate of MUG)", "setting": "[Inhibitor 3] =0.15625 μM, [MUG] 0.6 mM", "value": "2899.99 and 3077.74"}, {"measurement": "GUS activity (hydrolysis rate of MUG)", "setting": "[Inhibitor 3] =0.15625 μM, [MUG] 0.8 mM", "value": "3398.11 and 3693.06"}, {"measurement": "GUS activity (hydrolysis rate of MUG)", "setting": "[Inhibitor 3] =0.15625 μM, [MUG] 1.2 mM", "value": "4234.64 and 3962.7"}, {"measurement": "GUS activity (hydrolysis rate of MUG)", "setting": "[Inhibitor 3] =0.15625 μM, [MUG] 1.6 mM", "value": "4964.29 and 4569.67"}, {"measurement": "GUS activity (hydrolysis rate of MUG)", "setting": "[Inhibitor 3] =0.15625 μM, [MUG] 2 mM", "value": "5606.01 and 4919.37"}, {"measurement": "GUS activity (hydrolysis rate of MUG)", "setting": "[Inhibitor 3] =0.3125 μM, [MUG] 0.1 mM", "value": "857.043 and 831.938"}, {"measurement": "GUS activity (hydrolysis rate of MUG)", "setting": "[Inhibitor 3] =0.3125 μM, [MUG] 0.2 mM", "value": "1433.02 and 1411.42"}, {"measurement": "GUS activity (hydrolysis rate of MUG)", "setting": "[Inhibitor 3] =0.3125 μM, [MUG] 0.4 mM", "value": "2271.61 and 2263.8"}, {"measurement": "GUS activity (hydrolysis rate of MUG)", "setting": "[Inhibitor 3] =0.3125 μM, [MUG] 0.6 mM", "value": "2953.53 and 2923.55"}, {"measurement": "GUS activity (hydrolysis rate of MUG)", "setting": "[Inhibitor 3] =0.3125 μM, [MUG] 0.8 mM", "value": "3510.33 and 3469.47"}, {"measurement": "GUS activity (hydrolysis rate of MUG)", "setting": "[Inhibitor 3] =0.3125 μM, [MUG] 1.2 mM", "value": "4268.51 and 4308.7"}, {"measurement": "GUS activity (hydrolysis rate of MUG)", "setting": "[Inhibitor 3] =0.3125 μM, [MUG] 1.6 mM", "value": "4927.41 and 4670.47"}, {"measurement": "GUS activity (hydrolysis rate of MUG)", "setting": "[Inhibitor 3] =0.3125 μM, [MUG] 2 mM", "value": "5186.78 and 5296.26"}, {"measurement": "GUS activity (hydrolysis rate of MUG)", "setting": "[Inhibitor 3] =0.625 μM, [MUG] 0.1 mM", "value": "778.258 and 858.783"}, {"measurement": "GUS activity (hydrolysis rate of MUG)", "setting": "[Inhibitor 3] =0.625 μM, [MUG] 0.2 mM", "value": "1379.09 and 1422.22"}, {"measurement": "GUS activity (hydrolysis rate of MUG)", "setting": "[Inhibitor 3] =0.625 μM, [MUG] 0.4 mM", "value": "2137.64 and 2310.12"}, {"measurement": "GUS activity (hydrolysis rate of MUG)", "setting": "[Inhibitor 3] =0.625 μM, [MUG] 0.6 mM", "value": "2842.46 and 2976.65"}, {"measurement": "GUS activity (hydrolysis rate of MUG)", "setting": "[Inhibitor 3] =0.625 μM, [MUG] 0.8 mM", "value": "3348.75 and 3351.68"}, {"measurement": "GUS activity (hydrolysis rate of MUG)", "setting": "[Inhibitor 3] =0.625 μM, [MUG] 1.2 mM", "value": "4293.66 and 3890.63"}, {"measurement": "GUS activity (hydrolysis rate of MUG)", "setting": "[Inhibitor 3] =0.625 μM, [MUG] 1.6 mM", "value": "4573.95 and 4600.88"}, {"measurement": "GUS activity (hydrolysis rate of MUG)", "setting": "[Inhibitor 3] =0.625 μM, [MUG] 2 mM", "value": "5372.6 and 4990.92"}, {"measurement": "GUS activity (hydrolysis rate of MUG)", "setting": "[Inhibitor 3] =1.25 μM, [MUG] 0.1 mM", "value": "717.04 and 716.519"}, {"measurement": "GUS activity (hydrolysis rate of MUG)", "setting": "[Inhibitor 3] =1.25 μM, [MUG] 0.2 mM", "value": "1240.56 and 1222.88"}, {"measurement": "GUS activity (hydrolysis rate of MUG)", "setting": "[Inhibitor 3] =1.25 μM, [MUG] 0.4 mM", "value": "2023.29 and 2076.53"}, {"measurement": "GUS activity (hydrolysis rate of MUG)", "setting": "[Inhibitor 3] =1.25 μM, [MUG] 0.6 mM", "value": "2757.57 and 2739.69"}, {"measurement": "GUS activity (hydrolysis rate of MUG)", "setting": "[Inhibitor 3] =1.25 μM, [MUG] 0.8 mM", "value": "3062.28 and 3123.61"}, {"measurement": "GUS activity (hydrolysis rate of MUG)", "setting": "[Inhibitor 3] =1.25 μM, [MUG] 1.2 mM", "value": "3822.55 and 3852.43"}, {"measurement": "GUS activity (hydrolysis rate of MUG)", "setting": "[Inhibitor 3] =1.25 μM, [MUG] 1.6 mM", "value": "4324.26 and 4371.34"}, {"measurement": "GUS activity (hydrolysis rate of MUG)", "setting": "[Inhibitor 3] =1.25 μM, [MUG] 2 mM", "value": "5149.01 and 5020.2"}, {"measurement": "GUS activity (hydrolysis rate of MUG)", "setting": "[Inhibitor 3] =2.5 μM, [MUG] 0.1 mM", "value": "605.275 and 587.992"}, {"measurement": "GUS activity (hydrolysis rate of MUG)", "setting": "[Inhibitor 3] =2.5 μM, [MUG] 0.2 mM", "value": "1017.03 and 1026.81"}, {"measurement": "GUS activity (hydrolysis rate of MUG)", "setting": "[Inhibitor 3] =2.5 μM, [MUG] 0.4 mM", "value": "1798.51 and 1698.98"}, {"measurement": "GUS activity (hydrolysis rate of MUG)", "setting": "[Inhibitor 3] =2.5 μM, [MUG] 0.6 mM", "value": "2384.66 and 2417.17"}, {"measurement": "GUS activity (hydrolysis rate of MUG)", "setting": "[Inhibitor 3] =2.5 μM, [MUG] 0.8 mM", "value": "2879.78 and 2802.26"}, {"measurement": "GUS activity (hydrolysis rate of MUG)", "setting": "[Inhibitor 3] =2.5 μM, [MUG] 1.2 mM", "value": "3545.79 and 3649.82"}, {"measurement": "GUS activity (hydrolysis rate of MUG)", "setting": "[Inhibitor 3] =2.5 μM, [MUG] 1.6 mM", "value": "4144.07 and 4075.98"}, {"measurement": "GUS activity (hydrolysis rate of MUG)", "setting": "[Inhibitor 3] =2.5 μM, [MUG] 2 mM", "value": "4744.38 and 4849.33"}, {"measurement": "GUS activity (hydrolysis rate of MUG)", "setting": "[Inhibitor 3] =3.75 μM, [MUG] 0.1 mM", "value": "572.514 and 563.082"}, {"measurement": "GUS activity (hydrolysis rate of MUG)", "setting": "[Inhibitor 3] =3.75 μM, [MUG] 0.2 mM", "value": "956.564 and 935.374"}, {"measurement": "GUS activity (hydrolysis rate of MUG)", "setting": "[Inhibitor 3] =3.75 μM, [MUG] 0.4 mM", "value": "1708.56 and 1611.49"}, {"measurement": "GUS activity (hydrolysis rate of MUG)", "setting": "[Inhibitor 3] =3.75 μM, [MUG] 0.6 mM", "value": "2310.6 and 2247.59"}, {"measurement": "GUS activity (hydrolysis rate of MUG)", "setting": "[Inhibitor 3] =3.75 μM, [MUG] 0.8 mM", "value": "2878.65 and 2643.42"}]}]}
